Here are results for eight molecules from patent US20250304563A1, “ACTIVATORS OF EFFECTOR T CELLS” (Orum Therapeutics, Inc., priority 2022, published 2025).

For assay [1], the system named is Human primary T cells. The assay is described as follows: T cell activation: secreted IL-2. Type of assay: cell-based. Particulars: 48 hours, fold over background normalized to Compound 141A; for IL-2 1 nM: 1 nM compound; for IL-2 10 nM: 10 nM compound; for IL-2 100 nM: 100 nM compound. An outline of the steps:
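Negatively selected human primary T cells on plate-bound anti-CD3 (OKT3) in serum-free medium, treated 48 h at 37° C. with serial compound dilutions in duplicate. Secreted IL-2 by bead-based cytometric assay, expressed as fold over anti-CD3/CD28 background normalized to a reference compound, then binned into ranges.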

The target of assay [2] is Cbl-b (36-427 aa truncated form, N-terminus Avi-tag) (Homo sapiens (Human), UniProt Q13191). The assay is described as follows: Cbl-b binding: TR-FRET displacement of BODIPY-FL probe. The method in brief:
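Avi-tagged Cbl-b 36-427 preincubated 1 h at RT with streptavidin-terbium in HEPES pH 7.5/NaCl/Triton/BSA/TCEP buffer, then 1 uM BODIPY-FL inhibitor probe plus compound added for 1 h. Probe displacement read by TR-FRET; IC50 fitted.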
(Time-resolved FRET reads energy transfer from a long-lived donor to a nearby acceptor.)

Assay [3] concerns Human primary T cells. The assay is described as follows: T cell activation: secreted IFN-y. The following applies: 48 hours, fold over background normalized to Compound 141A; for IFN-y 1 nM: 1 nM compound; for IFN-y 10 nM: 10 nM compound; for IFN-y 100 nM: 100 nM compound. The assay is classed as cell-based. An outline of the steps:
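Negatively selected primary human T cells (1×10^5/well, serum-free XVivo-15) on plates coated with 10 μg/mL anti-CD3 were exposed to serial compound dilutions for 48 h at 37 °C. Secreted IFN-γ was measured by cytometric bead array and expressed as fold over anti-CD3/CD28 background, normalized to a reference compound and binned into ranges A–D.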

In assay [4] the test system is Human primary T cells. The assay is described as follows: T cell activation: CD69 surface expression by flow cytometry. The assay is classed as cell-based. The following applies: fold over anti-CD3 stimulated background normalized to Compound 141A; for CD69 10 nM: 10 nM compound; for CD69 100 nM: 100 nM compound; for CD69 1 nM: 1 nM compound. The method in brief:
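Negatively selected human primary T cells (1×10^5/well, XVivo-15) were captured on plates coated with 10 μg/mL anti-CD3 (OKT3). They were exposed to serially diluted compounds in duplicate for 48 h at 37° C. CD69 was read by flow cytometry as fold over anti-CD3-only background, normalized to Compound 141A and binned into ranges.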

Cbl-b (36-427 aa truncated form, N-terminus Avi-tag), sequence (Q13191 36-427): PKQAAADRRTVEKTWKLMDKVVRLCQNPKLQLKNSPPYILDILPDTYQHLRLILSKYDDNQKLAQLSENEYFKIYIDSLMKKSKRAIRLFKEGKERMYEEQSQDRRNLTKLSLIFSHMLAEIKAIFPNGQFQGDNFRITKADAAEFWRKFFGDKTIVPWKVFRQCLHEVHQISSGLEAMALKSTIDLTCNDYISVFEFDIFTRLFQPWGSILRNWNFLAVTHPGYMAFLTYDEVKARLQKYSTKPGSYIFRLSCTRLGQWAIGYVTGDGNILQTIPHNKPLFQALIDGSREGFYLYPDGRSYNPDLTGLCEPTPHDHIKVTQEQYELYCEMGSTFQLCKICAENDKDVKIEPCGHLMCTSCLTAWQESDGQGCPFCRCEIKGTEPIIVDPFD

As usually defined, the IC50 is the concentration at which inhibition is half-maximal. Lower therefore signals greater potency in that assay. For the molecule `C[C@H]1CCCN(Cc2cc3c(c(C(F)(F)F)c2)CN(c2cc(C4(Cc5nncn5C)COC4)cc(N4CCN(C(=O)CCCN=[N+]=[N-])CC4)n2)C3=O)C1` [Compound 136, (S)-2-(6-(4-(4-azidobutanoyl)piperazin-1-yl)-4-(3-((4-methyl-4H-1,2,4-triazol-3-yl)methyl)oxetan-3-yl)pyridin-2-yl)-6-((3-methylpiperidin-1-yl)methyl)-4-(trifluoromethyl)isoindolin-1-one], in the assay on Human primary T cells [1], the “IL-2 1 nM” value is “C (values between 0.10 and 0.30: range “C”)”; the “IL-2 10 nM” value was “B (values between 0.31 and 0.79: range “B”)”; the “IL-2 100 nM” value is “B (values between 0.31 and 0.79: range “B”)”. This molecule came in with an IC50 in assay [2] of 5.01 to 20 nM. Moreover, in the assay on Human primary T cells [3], the “IFN-y 1 nM” value was “C (values between 0.10 and 0.30: range “C”)”; the “IFN-y 10 nM” value was “B (values between 0.31 and 1.00: range “B;”)”; the “IFN-y 100 nM” value was “B (values between 0.31 and 1.00: range “B;”)”. In addition, in the assay on Human primary T cells [4], the “CD69 10 nM” value was “B (values between 0.61 and 0.80: range “B;”)”; the “CD69 100 nM” value was “A (values between 0.81 and 1.10: range “A”)”.

On to `CC#CC(=O)N1CCN(c2cc(C3(Cc4nncn4C)COC3)cc(N3Cc4c(cc(CN5CCC[C@H](C)C5)cc4C(F)(F)F)C3=O)n2)CC1` [Compound 137], for which, in the assay with Human primary T cells [1], the “IL-2 1 nM” value is “C (values between 0.10 and 0.30: range “C”)”; the “IL-2 10 nM” value is “B (values between 0.31 and 0.79: range “B”)”; the “IL-2 100 nM” value is “B (values between 0.31 and 0.79: range “B”)”. This molecule displayed an IC50 in assay [2] of 5.01 to 20 nM. Further, in the assay with Human primary T cells [3], the “IFN-y 1 nM” value is “B (values between 0.31 and 1.00: range “B;”)”; the “IFN-y 10 nM” value was “B (values between 0.31 and 1.00: range “B;”)”; the “IFN-y 100 nM” value was “B (values between 0.31 and 1.00: range “B;”)”. Further, in the assay with Human primary T cells [4], the “CD69 10 nM” value is “B (values between 0.61 and 0.80: range “B;”)”; the “CD69 100 nM” value was “A (values between 0.81 and 1.10: range “A”)”.

In the case of `CCNc1cc(C2(Cc3nncn3C)COC2)cc(N2Cc3c(cc([C@H](CSC)N4CCC[C@H](C)C4)cc3C(F)(F)F)C2=O)n1` [Compound 141A, 2-[6-(ethylamino)-4-{3-[(4-methyl-1,2,4-triazol-3-yl)methyl]oxetan-3-yl}pyridin-2-yl]-6-[(1R)-1-[(3S)-3-methylpiperidin-1-yl]-2-(methylsulfanyl)ethyl]-4-(trifluoromethyl)-3H-isoindol-1-one], in the assay with Human primary T cells [1], the “IL-2 1 nM” value was “B (values between 0.31 and 0.79: range “B”)”; the “IL-2 10 nM” value is “B (values between 0.31 and 0.79: range “B”)”; the “IL-2 100 nM” value is “A (between 0.80 and 1.40: range “A”)”. Besides, in assay [2], the half-inhibitory concentration (IC50) fell in the range of 5.01 to 20 nM. In the assay on Human primary T cells [3], the “IFN-y 1 nM” value was “B (values between 0.31 and 1.00: range “B;”)”; the “IFN-y 10 nM” value was “B (values between 0.31 and 1.00: range “B;”)”; the “IFN-y 100 nM” value is “A (fold over background between 1.10 and 2.00: range “A”)”. In addition, in the assay with Human primary T cells [4], the “CD69 10 nM” value was “A (values between 0.81 and 1.10: range “A”)”; the “CD69 100 nM” value was “A (values between 0.81 and 1.10: range “A”)”.

Take `CCNc1cc(C2(Cc3nncn3C)COC2)cc(N2Cc3c(cc([C@@H](CSC)N4CCC[C@H](C)C4)cc3C(F)(F)F)C2=O)n1` [Compound 141B, 2-[6-(ethylamino)-4-{3-[(4-methyl-1,2,4-triazol-3-yl)methyl]oxetan-3-yl}pyridin-2-yl]-6-[(1s)-1-[(3S)-3-methylpiperidin-1-yl]-2-(methylsulfanyl)ethyl]-4-(trifluoromethyl)-3H-isoindol-1-one]: in the assay with Human primary T cells [1], the “IL-2 1 nM” value was “B (values between 0.31 and 0.79: range “B”)”; the “IL-2 10 nM” value is “B (values between 0.31 and 0.79: range “B”)”; the “IL-2 100 nM” value was “B (values between 0.31 and 0.79: range “B”)”. In assay [2], this molecule yielded a half-inhibitory concentration (IC50) of 5.01 to 20 nM. Also, in the assay on Human primary T cells [3], the “IFN-y 1 nM” value is “C (values between 0.10 and 0.30: range “C”)”; the “IFN-y 10 nM” value was “B (values between 0.31 and 1.00: range “B;”)”; the “IFN-y 100 nM” value is “B (values between 0.31 and 1.00: range “B;”)”. For the same molecule, in the assay with Human primary T cells [4], the “CD69 10 nM” value is “A (values between 0.81 and 1.10: range “A”)”; the “CD69 100 nM” value is “A (values between 0.81 and 1.10: range “A”)”.

Consider `CSc1cc(CN2CCC[C@H](C)C2)cc2c1CN(c1cccc([C@]3(c4nncn4C)C[C@H](C)C3)c1)C2=O` [Compound 150, 6-{[(3S)-3-methylpiperidin-1-yl]methyl}-4-(methylsulfanyl)-2-{3-[(1r,3s)-3-methyl-1-(4-methyl-1,2,4-triazol-3-yl)cyclobutyl]phenyl}-3H-isoindol-1-one], for which, in the assay with Human primary T cells [1], the “IL-2 1 nM” value was “D (values between 0.01 and 0.09: range “D.”)”; the “IL-2 10 nM” value was “C (values between 0.10 and 0.30: range “C”)”; the “IL-2 100 nM” value is “B (values between 0.31 and 0.79: range “B”)”. This molecule also came in with an IC50 in assay [2] of 1 to 5 nM. In the assay with Human primary T cells [3], the “IFN-y 1 nM” value is “B (values between 0.31 and 1.00: range “B;”)”; the “IFN-y 10 nM” value is “B (values between 0.31 and 1.00: range “B;”)”; the “IFN-y 100 nM” value is “A (fold over background between 1.10 and 2.00: range “A”)”. In the assay on Human primary T cells [4], the “CD69 1 nM” value was “C (values between 0.30 and 0.60: range “C”)”; the “CD69 10 nM” value was “C (values between 0.30 and 0.60: range “C”)”; the “CD69 100 nM” value was “A (values between 0.81 and 1.10: range “A”)”.

As for `CC1CC(c2cccc(N3Cc4c(cc(C(CO)N5CCC[C@H](C)C5)cc4C(F)(F)F)C3=O)c2)(c2nncn2C)C1` (stereo partly drawn) [Compound 152, 6-{2-hydroxy-1-[(3S)-3-methylpiperidin-1-yl]ethyl}-2-{3-[(1r,3s)-3-methyl-1-(4-methyl-1,2,4-triazol-3-yl)cyclobutyl]phenyl}-4-(trifluoromethyl)-3H-isoindol-1-one], in the assay with Human primary T cells [1], the “IL-2 1 nM” value was “C (values between 0.10 and 0.30: range “C”)”; the “IL-2 10 nM” value is “C (values between 0.10 and 0.30: range “C”)”; the “IL-2 100 nM” value is “C (values between 0.10 and 0.30: range “C”)”. Besides, the 50% inhibitory concentration (IC50) in assay [2] lay within 1 to 5 nM. In the assay on Human primary T cells [3], the “IFN-y 1 nM” value is “C (values between 0.10 and 0.30: range “C”)”; the “IFN-y 10 nM” value was “B (values between 0.31 and 1.00: range “B;”)”; the “IFN-y 100 nM” value was “B (values between 0.31 and 1.00: range “B;”)”. Further, in the assay with Human primary T cells [4], the “CD69 1 nM” value was “C (values between 0.30 and 0.60: range “C”)”; the “CD69 10 nM” value is “C (values between 0.30 and 0.60: range “C”)”; the “CD69 100 nM” value is “A (values between 0.81 and 1.10: range “A”)”.

For `CSc1cc(CN2CCC[C@H](C)C2)cc2c1CN(c1cc(C3(Cc4nncn4C)COC3)cc(NCCC#N)n1)C2=O.O=C(O)C(F)(F)F` [Compound 154, 3-[(4-{3-[(4-methyl-1,2,4-triazol-3-yl)methyl]oxetan-3-yl}-6-(6-{[(3S)-3-methylpiperidin-1-yl]methyl}-4-(methylsulfanyl)-1-oxo-3H-isoindol-2-yl)pyridin-2-yl)amino]propanenitrile; trifluoroacetic acid], in the assay on Human primary T cells [1], the “IL-2 1 nM” value is “D (values between 0.01 and 0.09: range “D.”)”; the “IL-2 10 nM” value is “D (values between 0.01 and 0.09: range “D.”)”; the “IL-2 100 nM” value was “C (values between 0.10 and 0.30: range “C”)”. The molecule also yielded an IC50 in assay [2] of 1 to 5 nM. In the assay with Human primary T cells [3], the “IFN-y 1 nM” value was “B (values between 0.31 and 1.00: range “B;”)”; the “IFN-y 10 nM” value was “B (values between 0.31 and 1.00: range “B;”)”; the “IFN-y 100 nM” value was “B (values between 0.31 and 1.00: range “B;”)”. Moreover, in the assay on Human primary T cells [4], the “CD69 1 nM” value is “C (values between 0.30 and 0.60: range “C”)”; the “CD69 10 nM” value was “C (values between 0.30 and 0.60: range “C”)”; the “CD69 100 nM” value is “B (values between 0.61 and 0.80: range “B;”)”.

Consider `Cn1cnnc1CC1(c2cc(NCCC#N)nc(N3Cc4c(cc(CN5CCCC6OCCC65)cc4C(F)(F)F)C3=O)c2)COC1` (stereo not shown) [Compound 162, 3-{[6-(6-{hexahydro-2H-furo[3,2-b]pyridin-4-ylmethyl}-1-oxo-4-(trifluoromethyl)-3H-isoindol-2-yl)-4-{3-[(4-methyl-1,2,4-triazol-3-yl)methyl]oxetan-3-yl}pyridin-2-yl]amino}propanenitrile], for which, in the assay with Human primary T cells [1], the “IL-2 1 nM” value is “D (values between 0.01 and 0.09: range “D.”)”; the “IL-2 10 nM” value was “D (values between 0.01 and 0.09: range “D.”)”; the “IL-2 100 nM” value was “D (values between 0.01 and 0.09: range “D.”)”. This molecule had a 50% inhibitory concentration (IC50) in assay [2] of 5.01 to 20 nM. Besides, in the assay with Human primary T cells [3], the “IFN-y 1 nM” value was “C (values between 0.10 and 0.30: range “C”)”; the “IFN-y 10 nM” value is “B (values between 0.31 and 1.00: range “B;”)”; the “IFN-y 100 nM” value was “B (values between 0.31 and 1.00: range “B;”)”. In the assay on Human primary T cells [4], the “CD69 1 nM” value is “C (values between 0.30 and 0.60: range “C”)”; the “CD69 10 nM” value is “C (values between 0.30 and 0.60: range “C”)”; the “CD69 100 nM” value is “C (values between 0.30 and 0.60: range “C”)”.
